Where “and” joins values, the source holds several entries; their conditions need not be identical. Equal entries are not always repeated.
What was measured:
[1] = test system: thyroid receptor homodimer; settings: in contrast to T3; cited from earlier work
[2] = test system: C57, LDLr+/− and LDLr0 mice; assay: Blood sugar (serum glucose) in mice on Western Diet given daily oral T2; type: in vivo; parameters: Blood Sugar / Blood Sugar Ave: unit not given here; settings: for Blood Sugar Ave / Blood Sugar: Western Diet
Description: (§1) This corresponds to a dosage for an 80 kg human of about 20-200 mg/day, or a low dose of about 0.2-0.3 mg/kg of body weight to a high dose of about 2-3 mg/kg of body weight. One will appreciate, however, that some subjects (e.g., subjects having very low LDL receptor function) may receive higher doses, depending on need. likewise, some subjects may receive lower doses, which again depends on need. Mice in the study were fed a standard lab chow referred to as the “Western Diet.” The overall level of fat and the saturated nature of the fat are representative diets typical in the industrialized west that are linked to risk of cardiovascular disease in humans. The formula is used primarily with genetically manipulated rodent models that are susceptible to high cholesterol and cardiovascular disease. The diet may also be useful in diet-induced obesity, diabetes, and metabolic syndrome models. High cholesterol, obesity, and diabetes are each associated increased risk for cardiovascular disease. The composition of the Western Diet is shown below. C57 is a wild-type strain, LDLr+/− are a strain carrying one functional copy of the LDLr gene, and the LDLr0 animals are total LDLr knockouts. The LDLr gene encodes for the LDL receptor protein, which is responsible for scavenging LDL with bound cholesterol from the blood and transporting it into cells. Both heterozygous and homozygous LDLr knockout animals develop very high serum cholesterol levels and are considered to be a good model for heterozygous and homozygous familial hypercholesterolemia in humans. […] LDLr knockout animals have zero LDL receptor function.

TR β gene expression = settings: relative to T3; cited from earlier work
rats = settings: 250 mcg/kg p.o. q.d. for 30 days, cited from earlier work
[3] = test system: C57, LDLr+/− and LDLr0 mice; assay: Serum cholesterol in mice on Western Diet given daily oral T2; type: in vivo; parameters: Cholesterol / Cholesterol (Ave): unit not given here; settings: for lowered cholesterol, average: vs vehicle; for Cholesterol (Ave): group average; for Cholesterol: individual animal
Description: as §1

[4] = test system: C57, LDLr+/− and LDLr0 mice; assay: Serum triglycerides in mice on Western Diet given daily oral T2; type: in vivo; parameters: Triglycerides / Triglycerides (Ave): unit not given here
Description: as §1

SMILES: N[C@@H](Cc1cc(I)c(Oc2ccc(O)cc2)c(I)c1)C(=O)O [T2, (2S)-2-amino-3-[4-(4-hydroxyphenoxy)-3,5-diiodophenyl]propanoic acid]
- effect on thyroid receptor homodimer formation [1]: no effect
- Blood Sugar Ave ([2]; C57 mice, 1 Week High Dose T2, group average): 110.0
- Blood Sugar ([2]; C57 mice, 1 Week High Dose T2, individual animals): 74 and 158 and 106 and 120 and 92
- Blood Sugar Ave ([2]; C57 mice, 1 Week Low Dose T2, group average): 170.0
- Blood Sugar ([2]; C57 mice, 1 Week Low Dose T2, individual animals): 151 and 203 and 186 and 190 and 120
- Blood Sugar Ave ([2]; LDLr0 mice, 1 Week High Dose T2, group average): 94.0
- Blood Sugar ([2]; LDLr0 mice, 1 Week High Dose T2, individual animals): 87 and 101
- Blood Sugar Ave ([2]; LDLr0 mice, 1 Week Low Dose T2, group average): 92.0
- Blood Sugar ([2]; LDLr0 mice, 1 Week Low Dose T2, individual animals): 143 and 54 and 79
- Blood Sugar Ave ([2]; LDLr+/− mice, 1 Week High Dose T2, group average): 101.0
- Blood Sugar ([2]; LDLr+/− mice, 1 Week High Dose T2, individual animals): 108 and 99 and 112 and 94 and 113 and 80
- Blood Sugar Ave ([2]; LDLr+/− mice, 1 Week Low Dose T2, group average): 201.0
- Blood Sugar ([2]; LDLr+/− mice, 1 Week Low Dose T2, individual animals): 202 and 146 and 235 and 171 and 242 and 210
- lowered blood sugar levels, average ([2]; all genetic groups (C57, LDLr+/−, LDLr0), high dose T2 2.5 mg/kg daily oral, vs controls): 45-50%
- less potent than T3 in decreasing TR β gene expression (TR β gene expression): 50%
- decrease in body weight (rats; compared to controls): 13%
- decrease in hepatic fat mass (rats; compared to controls): 50%
- increase in hepatic fat oxidation (rats; compared to controls): 42%
- lowering of cholesterol (rats; compared to controls): 18%
- lowering of serum triglycerides (rats; compared to controls): 52%
- heart rate, thyroid gland or heart weight, TSH, free T3, free T4, TSH response to TRH (rats): not accompanied by an increase in heart rate
- lowered cholesterol, average ([3]; C57 animals, high dose T2 2.5 mg/kg daily oral): about 67%
- lowered cholesterol, average ([3]; C57 animals, low dose T2 0.25 mg/kg daily oral): about 38%
- Cholesterol (Ave) ([3]; C57 mice, 1 Week High Dose, T2 2.5 mg/kg daily oral): 60.8
- Cholesterol ([3]; C57 mice, 1 Week High Dose, T2 2.5 mg/kg daily oral, 2.5 mg/kg): 41.312 and 53.718 and 75.711 and 62.741 and 70.636
- Cholesterol (Ave) ([3]; C57 mice, 1 Week Low Dose, T2 0.25 mg/kg daily oral): 113.5
- Cholesterol ([3]; C57 mice, 1 Week Low Dose, T2 0.25 mg/kg daily oral, 0.25 mg/kg): 96.130 and 114.249 and 104.366 and 114.798 and 137.858
- Cholesterol (Ave) ([3]; LDLr0 mice (first group), 1 Week High Dose, T2 2.5 mg/kg daily oral): 320.4
- Cholesterol ([3]; LDLr0 mice (first group), 1 Week High Dose, T2 2.5 mg/kg daily oral, 2.5 mg/kg): 303.529 and 337.364
- Cholesterol (Ave) ([3]; LDLr0 mice (first group), 1 Week Low Dose, T2 0.25 mg/kg daily oral): 823.5
- Cholesterol ([3]; LDLr0 mice (first group), 1 Week Low Dose, T2 0.25 mg/kg daily oral, 0.25 mg/kg): 1063.848 and 593.252 and 813.532
- Cholesterol (Ave) ([3]; LDLr0 mice (second group), 1 Week Low Dose, T2 0.25 mg/kg daily oral): 930.5
- Cholesterol ([3]; LDLr0 mice (second group), 1 Week Low Dose, T2 0.25 mg/kg daily oral, 0.25 mg/kg): 611.760 and 750.720 and 813.250 and 1112.010 and 1167.590 and 438.070 and 1000.840 and 1549.720
- Cholesterol (Ave) ([3]; LDLr0 mice (second group), 2 Week Low Dose, T2 0.25 mg/kg daily oral): 1026.8
- Cholesterol ([3]; LDLr0 mice (second group), 2 Week Low Dose, T2 0.25 mg/kg daily oral, 0.25 mg/kg): 996.905 and 1035.325 and 944.755 and 988.670 and 1092.965 and 524.830 and 1189.025 and 1441.530
- lowered cholesterol, average ([3]; LDLr knockout animals, high dose T2 2.5 mg/kg daily oral): about 80%
- lowered cholesterol, average ([3]; LDLr knockout animals, low dose T2 0.25 mg/kg daily oral): about 46%
- lowered cholesterol, average ([3]; LDLr+/− animals, high dose T2 2.5 mg/kg daily oral): about 67%
- lowered cholesterol, average ([3]; LDLr+/− animals, low dose T2 0.25 mg/kg daily oral): about 26%
- Cholesterol (Ave) ([3]; LDLr+/− mice, 1 Week High Dose, T2 2.5 mg/kg daily oral): 93.8
- Cholesterol ([3]; LDLr+/− mice, 1 Week High Dose, T2 2.5 mg/kg daily oral, 2.5 mg/kg): 84.169 and 99.395 and 103.342 and 102.778 and 66.124 and 107.29
- Cholesterol (Ave) ([3]; LDLr+/− mice, 1 Week Low Dose, T2 0.25 mg/kg daily oral): 188.8
- Cholesterol ([3]; LDLr+/− mice, 1 Week Low Dose, T2 0.25 mg/kg daily oral, 0.25 mg/kg): 185.075 and 229.548 and 196.605 and 160.917 and 172.447 and 188.370
- Triglycerides (Ave) ([4]; C57 mice, 1 Week High Dose, T2 2.5 mg/kg daily oral, group average): 55.8
- Triglycerides ([4]; C57 mice, 1 Week High Dose, T2 2.5 mg/kg daily oral, individual animal, 2.5 mg/kg): 42.161 and 68.02 and 45.486 and 50.657 and 72.822
- Triglycerides (Ave) ([4]; C57 mice, 1 Week Low Dose, T2 0.25 mg/kg daily oral, group average): 29.5
- Triglycerides ([4]; C57 mice, 1 Week Low Dose, T2 0.25 mg/kg daily oral, individual animal, 0.25 mg/kg): 24.835 and 29.673 and 13.299 and 36.371 and 43.441
- Triglycerides (Ave) ([4]; LDLr0 mice (first group), 1 Week High Dose, T2 2.5 mg/kg daily oral, group average): 192.1
- Triglycerides ([4]; LDLr0 mice (first group), 1 Week High Dose, T2 2.5 mg/kg daily oral, individual animal, 2.5 mg/kg): 173.672 and 210.614
- Triglycerides (Ave) ([4]; LDLr0 mice (first group), 1 Week Low Dose, T2 0.25 mg/kg daily oral, group average): 183.0
- Triglycerides ([4]; LDLr0 mice (first group), 1 Week Low Dose, T2 0.25 mg/kg daily oral, individual animal, 0.25 mg/kg): 230.244 and 106.329 and 212.382
- Triglycerides (Ave) ([4]; LDLr0 mice (second group), 1 Week Low Dose, T2 0.25 mg/kg daily oral, group average): 236.2
- Triglycerides ([4]; LDLr0 mice (second group), 1 Week Low Dose, T2 0.25 mg/kg daily oral, individual animal, 0.25 mg/kg): 183.413 and 260.001 and 239.273 and 268.082 and 244.895 and 177.441 and 263.163 and 252.975
- Triglycerides (Ave) ([4]; LDLr0 mice (second group), 2 Week High Dose (as headed), daily oral T2, group average): 356.5
- Triglycerides ([4]; LDLr0 mice (second group), 2 Week High Dose (as headed), daily oral T2, individual animal): 225.895 and 274.993 and 402.246 and 281.673 and 462.031 and 223.557 and 485.745 and 496.099
- Triglycerides (Ave) ([4]; LDLr+/− mice, 1 Week High Dose, T2 2.5 mg/kg daily oral, group average): 52.1
- Triglycerides ([4]; LDLr+/− mice, 1 Week High Dose, T2 2.5 mg/kg daily oral, individual animal, 2.5 mg/kg): 40.683 and 35.511 and 62.848 and 68.389 and 37.359 and 68.02
- Triglycerides (Ave) ([4]; LDLr+/− mice, 1 Week Low Dose, T2 0.25 mg/kg daily oral, group average): 31.4
- Triglycerides ([4]; LDLr+/− mice, 1 Week Low Dose, T2 0.25 mg/kg daily oral, individual animal, 0.25 mg/kg): 12.927 and 34.138 and 40.464 and 29.673 and 31.161 and 40.092
- effect on serum triglyceride levels ([4]; low and high dose T2, all genotypes): did not affect
